For this test, the system named is human keratinocytes (NHKs). The test can be described thus: Lipofuscin autofluorescence in human keratinocytes under H2O2 oxidative stress, normalized to total protein. In kind it is cell-based. Particulars: Keratinocyte, 48 h, 0.5 µg/ml oleuropein for 24 h before and 2 days after the stress, 1 mM H2O2 for 20 minutes, measured 2 days after oxidative stress, read-out: decrease of lipofuscin formation, as compared to untreated H2O2- exposed cells. As for the experimental part:
Because there is no specific lipofuscin antibody and its composition varies between different cell types, lipofuscin autofluorescence is the most widely used method for its detection and quantification. In order to evaluate the effect of oleuropein on lipofuscin formation in oxidatively stressed cells, lipofuscin accumulation was measured by autofluorescence, after induction of oxidative stress to human keratinocytes, treated or not with oleuropein.
After 24h incubation with oleuropein, the cells were treated with 1mM H2O2 for 20 minutes. After a recovery time of 2, 4 or 7 days, representative pictures of cells were taken and lipofuscin amount was quantified by autofluorescence measurement. […]
After 2, 4 and 7 days, respectively, representative pictures of the cells were taken, and lipofuscin autofluorescence was measured.
The total protein content was determined at each time-point for data normalization purposes. […]
The autofluorescence of lipofuscin was detected at wavenlengths of 570-605nm after an excitation at 366nm, using a fluorometer (Vistor2TM, PerkinElmer, Belgium).
For each condition tested, the quantity of autofluorescent lipofuscin was normalized to the amount of total proteins. […] The dosage of proteins was performed following the Bradford method, based on the detection of the absorbance of Coomassie Blue (Coomassie Protein Assay Kit, Pierce, USA). […]

As to `C/C=C1/[C@H](O[C@@H]2O[C@H](CO)[C@@H](O)[C@H](O)[C@H]2O)OC=C(C(=O)OC)[C@H]1CC(=O)OCCc1ccc(O)c(O)c1` [oleuropein, Oleuropein], the inhibition at 0.5 µg/mL was 13%.

(Values after patent publication EP2218441A1, “Methods for the prevention and/or treatment of age spots” (Rahn Ag, priority 2009, dated 2010).)
